# According to patent publication US20250368639A1, “SOLID FORMS OF A COMPOUND FOR TREATING OR PREVENTING HYPERURICEMIA OR GOUT” (ATOM THERAPEUTICS CO., LTD, priority 2022, published 2025):
# Read-outs that look alike come from different tables or passages of the source.
# What was measured:
# [1] = Dynamic vapor sorption/desorption (DVS); format: physicochemical; settings: 25° C., 85% RH
# Protocol: Moisture sorption/desorption data were collected on a SMS DVS intrinsic Vapor Sorption Analyzer under a nitrogen purge. The DVS experiment generally includes a moisture sorption step and a moisture desorption step. […] In other words, the sample is considered to have reached an equilibrium between moisture sorption and desorption under the relative humidity when dm/dt≤0.01%. The sample was maintained at the temperature of 25° C. with relative humidity varied from 0% to 95%, and back to 0% at an increment of 5% RH each step.
# [2] = Solid state stability under stress conditions (XRPD, HPLC); format: physicochemical; settings: closed vial about 60° C.; closed vial about 40° C./75% RH; 1 week and 2 weeks
# Protocol: Form 1. Form 2, Form 6, Form 8, and Form 11 were each placed under following stress conditions: (1) in a closed vial at a temperature of about 60° C., and (2) in a closed vial at a temperature of about 40′° C. and a humidity of about 75% RH. The solids were analyzed with XRPD at 1 week and 2 weeks intervals.
# Additionally, all forms were analyzed with HPLC for impurity at the 1 week and 2 weeks intervals. In a typical analysis, about 5 mg of forms were each dissolved in 10 ml of diluents with the aid of sonication for 2 minutes. THF was used as the diluent for Form 1, and methanol was used as the diluent for Form 6, Form 8, and Form 11. The HPLC analysis utilized Agilent Eclipse XDB-C18 4.6*150 mm. 3.5 μm at 30° C., a mobile phase of a gradient between 0.1% H3PO4 and acetonitrile (9:1 to 2:8 to 9:1), an injection volume of 10 μl, a flow rate of 1.0 ml/min, and a detection wavelength of 214 nm.
# Form 2 was further subject to the stability test in an open vial at 40° C. and a relative humidity of 75% RH.
# [3] = Solubility in water, buffers and bio-relevant media (37° C., 24 h shaking, HPLC); format: physicochemical; settings: for Solubility: 37° C., 24 h; for Appearance / solubility in water: shaken about 24 hours, compared with Form 1
# Protocol: The solubility of Form 1, Form 2, Form 5D, Form 6, Form 8, and Form 11 was analyzed in water, 0.1NaqueousHCl, pH4.5 acetate buffer solution, pH6.8 phosphate buffer solution, simulated gastric fluid (SGF), Fasted State Simulated Intestinal Fluid (FaSSIF), and Fed State Simulated Intestinal Fluid (FeSSIF).
# About 5 mg or 10 mg of sample was weighed out into each vial and mixed with about 5 ml of medium to form a solution. The target concentration for the potassium salt in water was 2 mg/ml; and the target concentration for all other forms were 1 mg/mL. All samples were kept shaking at 200 rounds per minute (rpm) under 37° C. for 24 hours. The pH value of these samples were determined after shaking for 24 hours. Subsequently, they were centrifuged at the speed of 12000 rpm for 2 mins. The supernatant was diluted with methanol as necessary, and the concentrations were determined by HPLC. When the solubility of potassium salt was tested in water, the supernatant was diluted 100 times, while no other samples were diluted. The HPLC analysis utilizes Agilent Eclipse XDB-C8 4.6*150 mm, 5 μm column at 40° C., a mobile phase of 0.1% TFA: ACN=70:30, an injection volume of 10 μl, a flow rate of 1.0 ml/min, a diluent of methanol, and a detection wavelength of 234 nm.
# [4] = Slurry stability in purified water (XRPD); format: physicochemical; settings: stirred overnight at room temperature
# Protocol: About 30 mg of Form land Form 5D, Form 6, and Form 8 were mixed with about 2.5 ml of purified water, and the mixtures were stirred for overnight at room temperature. The wet solids were isolated by centrifugation, and further dried in vacuum for 2.5 hours before being analyzed with XRPD.
# [5] = Single-dose pharmacokinetic study, oral and intravenous, in SD rats; format: in vivo, SD rat; settings: for AUC(0-inf): read-out: AUCINF—pred; for half-life: read-out: HL_Lambda_z (T1/2) (converted); for Vd/F: read-out: Vz—F—pred;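 on AUClast: AUClast in h·ng/mL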
# Protocol: Form 1, Form 2, and Form 5D were each evaluated via a single-dose pharmacokinetic study following oral and intravenous administration in SD rats. […] Form 1, Form 2, and Form 5Dwere evaluated by rat pharmacokinetics study.
# Male SD rat was purchased from Shanghai Sippr B&K Laboratory Animals Co., Ltd. The weight was 180 g˜200 g.
# 20% HP-β-CD was prepared from dissolving20 g of HP-β-CD (from Sigma) in 100 mL purified water. 0.5% CMC-Na was prepared from dissolving 1 g of CMC-Na (from Aladdin) in 200 mL purified water. The solutions were stored at 2-8 degree.
# (§1) Group 1:4.95 mg (equivalent to 4.50 mg of anhydrous free base) of Form 1 was weighed out into a 20 ml bottle, and totally dissolved by 0.225 mL DMSO by sonication. After that, 4.275 mL of 20% HP-β-CD was added, mixed well by sonication. Finally, the pH value was adjusted to 7.0 by sodium hydroxide solution. The clear solution was obtained, and the concentration was 1 mg/mL.
# Group 2:10.08 mg (equivalent to 9.164 mg of anhydrous free base) of Form 1 was weighed out into a 20 ml bottle, and then 9.164 mL of 0.5% CMC-Na was added. A white suspension was formed after sonicated by ultrasonic cell disruptor, and the concentration was 1 mg/mL.
# Group 3:9.47 mg of Form 2 was weighed out into a 20 ml bottle, and then 9.470 mL of 0.5% CMC-Na was added. After sonicated, it was mixed well by homogenizer for 2 minutes. Finally, a white suspension was formed, and the concentration was 1 mg/mL.
# Group 4:9.80 mg (equivalent to 8.909 mg of free base) of Form 5Dwas weighed out into a 20 mL bottle, and then 8.909 mL of 0.5% CMC-Na was added. After sonicated, it was mixed well by homogenizer for 2 minutes. Finally, a white suspension was formed, and the concentration was 1 mg/mL.
# as §1, with “Group 5:1.94” for “Group 1:4.95”, “to 1.763” for “to 4.50”, “by 0.088” for “by 0.225”, “that, 1.675” for “that, 4.275”, “was 0.2” for “was 1”
# The dose of intravenous administration was 1 mg/kg and 5 mg/kg, respectively. The oral dose was 10 mg/kg. Animals were fasted overnight before drug administration. After the drug administration, the rats were fed at the 4 hours.
# About 150˜200 μL of blood was collected at the initial time (only intravenous), and at 0.25, 0.5, 1, 2, 4, 6, 8 and 24 h by jugular venipuncture blooding method. EDTA-K2 was selected as anticoagulant. Blood samples were centrifuged within one hour at 6000 rpm for 8 minutes (placed on wet ice before centrifugation). The supernatant was stored at −20° C. for LC-MS/MS analysis.
# The computer program Microsoft Office Excel 2007 (Microsoft, USA) was used to process data and graphics. The pharmacokinetic parameters were calculated by WinNolin 6.4 software.
# [6] = Suspensions for animal formulation in 0.5% CMC-Na (XRPD); format: physicochemical; settings: about 30 mg in 30 ml, sonication
# Protocol: About 30 mg of Form 1, Form 2, and Form 5D were each added into a respective 40 ml glass bottle and mixed with 30 ml of 0.5% CMC-Na solution. The solids were dispersed uniformly in the solution with the aid of sonication. After that, the solids were isolated by centrifugation, dried at room temperature, and the dry solid analyzed with XRPD.
# [7] = male SD rats, oral 10 mg/kg, Average (Table 11)
# [8] = male, SD, rat, plasma, po, 10 mg/kg, male SD rats, oral 10 mg/kg, Average (Table 11)
# [9] = male, SD, rat, plasma, po, 10 mg/kg, male SD rats, oral 10 mg/kg, individual rats 401/402/403 (c1/c2/c3)
Compound,DVS (85% RH) [1],XRPD pattern after stress storage [2],Solubility ([3]; 0.1N HCl),Solubility ([3]; FaSSIF),Solubility ([3]; FeSSIF),Solubility ([3]; SGF),Solubility ([3]; Water),Solubility ([3]; pH 4.5 acetate buffer),Solubility ([3]; pH 6.8 phosphate buffer),Appearance / solubility in water [3],Crystal form after slurry in purified water (XRPD) [4],other results
"CCc1nc2ccccn2c1C(=O)c1cc(Br)c(O)c(C#N)c1 [Form 7, 3-bromo-5-[(2-ethylimidazo[1,2-a]pyridin-3-yl)carbonyl]-2-hydroxybenzonitrile]",1.93%,–,–,–,–,–,–,–,–,–,–,–
"CCc1nc2ccccn2c1C(=O)c1cc(Br)c(O)c(C#N)c1 [Form 12, 3-bromo-5-[(2-ethylimidazo[1,2-a]pyridin-3-yl)carbonyl]-2-hydroxybenzonitrile]",8.07%,–,–,–,–,–,–,–,–,–,–,–
"CCc1nc2ccccn2c1C(=O)c1cc(Br)c(O)c(C#N)c1 [Form 9, 3-bromo-5-[(2-ethylimidazo[1,2-a]pyridin-3-yl)carbonyl]-2-hydroxybenzonitrile]",0.29%,–,–,–,–,–,–,–,–,–,–,–
"CCc1nc2ccccn2c1C(=O)c1cc(Br)c(O)c(C#N)c1 [Form 11, 3-bromo-5-[(2-ethylimidazo[1,2-a]pyridin-3-yl)carbonyl]-2-hydroxybenzonitrile]",6.18%,substantially similar to those received at the initial time,6.8 µg/mL,28.4 µg/mL,3.4 µg/mL,5.8 µg/mL,1914.5 µg/mL,1.7 µg/mL,31.0 µg/mL,nearly clear solution in water,–,–
"CCc1nc2ccccn2c1C(=O)c1cc(Br)c(O)c(C#N)c1 [Form 10, 3-bromo-5-[(2-ethylimidazo[1,2-a]pyridin-3-yl)carbonyl]-2-hydroxybenzonitrile]",2.37%,–,–,–,–,–,–,–,–,–,–,–
"CCc1nc2ccccn2c1C(=O)c1cc(Br)c(O)c(C#N)c1 [Form 8, 3-bromo-5-[(2-ethylimidazo[1,2-a]pyridin-3-yl)carbonyl]-2-hydroxybenzonitrile]",4.66%,substantially similar to those received at the initial time,5.3 µg/mL,14.5 µg/mL,8.6 µg/mL,3.5 µg/mL,0.5 µg/mL,0.6 µg/mL,17.9 µg/mL,reduced solubility in water,transformed into Form 1,–
"CCc1nc2ccccn2c1C(=O)c1cc(Br)c(O)c(C#N)c1 [Form 5D, 3-bromo-5-[(2-ethylimidazo[1,2-a]pyridin-3-yl)carbonyl]-2-hydroxybenzonitrile]",2.14%,–,8.3 µg/mL,55.8 µg/mL,5.4 µg/mL,7.4 µg/mL,0.8 µg/mL,1.3 µg/mL,47.7 µg/mL,reduced solubility in water,transformed into Form 1,"Exposure and bioavailability (words, comparison) ([5]; SD rats, oral administration 10 mg/kg, 10 mg/kg): approximately the same as results from third parties; AUClast [5, 7]: 91914.8 ng·h/mL; Cl—F—pred [5, 7]: 1.83 mL/min/kg; F ([5]; male SD rats, oral 10 mg/kg, calculated by intravenous administration of 1 mg/kg, Average (Table 11)): 52.96%; Cmax [5, 8]: 8980 ng/mL; MRT last [5, 8]: 5.95 h; Tmax [5, 8]: 3.33 h; AUC(0-inf) [5, 8]: 92700 ng·h/mL; half-life [5, 8]: 3.4 h; Vd/F [5, 8]: 0.53 L/kg; AUC(0-t) [5, 9]: 84700 ng·h/mL; Cmax [5, 9]: 8540 ng/mL; MRT last [5, 9]: 6.11 h; Tmax [5, 9]: 4 h; AUC(0-inf) [5, 9]: 96600 ng·h/mL; half-life [5, 9]: 3.55 h; Vd/F [5, 9]: 0.53 L/kg; Crystal form after dispersion in 0.5% CMC-Na solution (XRPD) [6]: did not change"
"CCc1nc2ccccn2c1C(=O)c1cc(Br)c(O)c(C#N)c1 [Form 6, 3-bromo-5-[(2-ethylimidazo[1,2-a]pyridin-3-yl)carbonyl]-2-hydroxybenzonitrile]",0.35%,substantially similar to those received at the initial time,4.6 µg/mL,45.8 µg/mL,4.4 µg/mL,3.3 µg/mL,0.4 µg/mL,0.5 µg/mL,25.7 µg/mL,reduced solubility in water,transformed into Form 1,–
